Assay results from patent US7608564B2, “3-heterocyclyl-substituted benzoyl derivatives” (BASF Aktiengesellschaft, priority 1997, dated 2009).

melting point: > 250 °C
SMILES: Cn1ncc(C(=O)c2ccc(S(C)(=O)=O)c(C3=NOCC3)c2Cl)c1O [3.35, 4-[2-Chloro-3-(4,5-dihydroisoxazol-3-yl)-4-methylsulfonyl-benzoyl]-5-hydroxy-1-methyl-1H-pyrazole]
